Experimental data taken from patent publication US5391540A, “Substituted pyridine compounds” (Rohm and Haas Company, priority 1993, dated 1995).

How the values were obtained:
Type in all cases: in vivo
Dobr = assay: plant injury after spraying emerged plants (Table D)
Text: Topsoil (silt loam) is sieved through a screen having 1.27 cm openings. In some of the tests the soil was mixed with fertilizer (1225 g/cu. m of 12/5/9 containing isobutylidene diurea), while in other tests the fertilizer was omitted. This mixture is steam sterilized and then placed in aluminum pans 6.985 cm deep having ten holes in the bottom each 0.635 cm in diameter. The soil mixture is compacted to a depth of 1.27 cm. from the top of the pan. A predetermined number of seeds of each of several dicotyledonous and monocotyledonous annual plant species and/or vegetative propagules for the perennial plant species are placed on the soil and pressed into the soil surface. The seeds and/or vegetative propagules are covered with 1.27 cm of a mixture of 50% topsoil and 50% of a mixture of Canadian sphagnum peat moss, vermiculite and a wetting agent. The pans are then placed on a capillary mat on a greenhouse bench and subirrigated as needed. After the plants reach the desired stage (9 to 14 days, 1 to 3 true leaf stage), each pan (except the control pans) is removed to a spraying chamber and sprayed by means of an atomizer, operating at a spray pressure of 170.3 kPa ([…]) at the application rates noted in Table D. In the spray solution is an amount of an emulsifying agent mixture (35% butylamine salt of dodecylbenzenesulfonic acid and 65% tall oil condensed with ethylene oxide in the ratio of 11 mols of ethylene oxide/mol of tall oil) to give a spray solution or suspension. The spray solution or suspension contains a sufficient amount of the candidate chemical in order to give application rates of the active ingredient corresponding to those shown in Table D below while applying a total amount of solution or suspension equivalent to 1870 L/Ha (200 gallons/acre). The pans are returned to the greenhouse and watered as before and the injury to the plants as compared to the control pans is observed at approximately 10-14 days (usually 11 days).
(§1) In the following Table D the legends used to identify the plant species are the same as those used in the preceding Table B.

Prmi = assay: as above; set-up: scale not given here
Text: (§2) Topsoil (silt loam) is sieved through a screen having 1.27 cm openings. […] This mixture is steam sterilized and then placed in aluminum pans 6.985 cm deep having ten holes in the bottom each 0.635 cm in diameter. The soil mixture is compacted to a depth of 1.27 cm. from the top of the pan. A predetermined number of seeds of each of several dicotyledonous and monocotyledonous annual plant species and/or vegetative propagules for the perennial plant species are placed on the soil and pressed into the soil surface. The seeds and/or vegetative propagules are covered with 1.27 cm of a mixture of 50% topsoil and 50% of a mixture of Canadian sphagnum peat moss, vermiculite and a wetting agent. The pans are then placed on a capillary mat on a greenhouse bench and subirrigated as needed.
as §1

Whez = assay: as above; set-up: scale not given here
Text: as §2, §1

Corn = assay: as above; set-up: scale not given here
Text: as §2, §1

Cobu = assay: as above; set-up: scale not given here
Text: as §2, §1

Sobe = assay: as above; set-up: scale not given here
Text: as §2, §1

Rice = assay: as above; set-up: scale not given here
Text: as §2, §1

Bygr = assay: as above; set-up: scale not given here
Text: as §2, §1

Lacg = assay: as above; set-up: scale not given here
Text: as §2, §1

Mogl = assay: as above; set-up: scale not given here
Text: as §2, §1

Grso = assay: as above; set-up: scale not given here
Text: as §2, §1

Grft = assay: as above; set-up: scale not given here
Text: as §2, §1

Morningglory = assay: Pre-emergent herbicidal activity (Table A); settings: Ipomoea, pre-emergence, Mogl, 11.2 kg/ha, 10-14 days, read-out: herbicidal rating (% inhibition)
How it was run: (§3)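 Seeds or perennial propagules set on compacted topsoil, then covered with soil mixed with a known amount of test compound applied in acetone or water carrier. Ratings assigned on a scale based on percent inhibition of each species.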

Downy Brome = assay: Pre-emergent herbicidal activity (Table A); settings: Bromus tectorum, pre-emergence, Dobr, 11.2 kg/ha, 10-14 days, read-out: herbicidal rating (% inhibition)
How it was run: as §3

Cocklebur = assay: Pre-emergent herbicidal activity (Table A); settings: Xanthium strumarium, pre-emergence, Cobu, 11.2 kg/ha, 10-14 days, read-out: herbicidal rating (% inhibition)
How it was run: as §3

Yellow Nutsedge = assay: Pre-emergent herbicidal activity (Table A); settings: Cyperus, pre-emergence, Yens, 11.2 kg/ha, 10-14 days, read-out: herbicidal rating (% inhibition)
How it was run: as §3

COC(=O)c1c(OC)nc(C(F)(F)F)c(C(=O)Cl)c1CC1CC1 [Compound 113, 3-pyridinecarboxylic acid, 5-(chlorocarbonyl)-4-(cyclopropylmethyl)-2-methoxy-6-(trifluoromethyl)-, methyl ester]
plant injury rating, Dobr (Dobr; 0.2803 kg/ha): 0
plant injury rating, Dobr (Dobr; 1.1210 kg/ha): 0
plant injury rating, Dobr (Dobr; 5.6050 kg/ha): 0
plant injury rating, Prmi (Prmi; 0.2803 kg/ha): 0
plant injury rating, Prmi (Prmi; 1.1210 kg/ha): 0
plant injury rating, Prmi (Prmi; 5.6050 kg/ha): 0
plant injury rating, Whez (Whez; 0.2803 kg/ha): 0
plant injury rating, Whez (Whez; 1.1210 kg/ha): 0
plant injury rating, Whez (Whez; 5.6050 kg/ha): 0
plant injury rating, Corn (Corn; 0.2803 kg/ha): 0
plant injury rating, Corn (Corn; 1.1210 kg/ha): 0
plant injury rating, Corn (Corn; 5.6050 kg/ha): 0
plant injury rating, Cobu (Cobu; 0.2803 kg/ha): 0
plant injury rating, Cobu (Cobu; 1.1210 kg/ha): 0
plant injury rating, Cobu (Cobu; 5.6050 kg/ha): 0
plant injury rating, Sobe (Sobe; 0.2803 kg/ha): 0
plant injury rating, Sobe (Sobe; 1.1210 kg/ha): 0
plant injury rating, Sobe (Sobe; 5.6050 kg/ha): 1
plant injury rating, Rice (Rice; 0.2803 kg/ha): 0
plant injury rating, Rice (Rice; 1.1210 kg/ha): 0
plant injury rating, Rice (Rice; 5.6050 kg/ha): 0
plant injury rating, Bygr (Bygr; 0.2803 kg/ha): 0
plant injury rating, Bygr (Bygr; 1.1210 kg/ha): 0
plant injury rating, Bygr (Bygr; 5.6050 kg/ha): 0
plant injury rating, Lacg (Lacg; 0.2803 kg/ha): 0
plant injury rating, Lacg (Lacg; 1.1210 kg/ha): 0
plant injury rating, Lacg (Lacg; 5.6050 kg/ha): 2
plant injury rating, Mogl (Mogl; 0.2803 kg/ha): 0
plant injury rating, Mogl (Mogl; 1.1210 kg/ha): 0
plant injury rating, Mogl (Mogl; 5.6050 kg/ha): 1
plant injury rating, Grso (Grso; 0.2803 kg/ha): 0
plant injury rating, Grso (Grso; 1.1210 kg/ha): 0
plant injury rating, Grso (Grso; 5.6050 kg/ha): 0
plant injury rating, Grft (Grft; 0.2803 kg/ha): 0
plant injury rating, Grft (Grft; 1.1210 kg/ha): 0
plant injury rating, Grft (Grft; 5.6050 kg/ha): 0
inhibition at 11200 g/ha (Morningglory): 25 to 49%
inhibition at 11200 g/ha (Downy Brome): 75 to 100%
inhibition at 11200 g/ha (Cocklebur): 0 to 24%
inhibition at 11200 g/ha (Yellow Nutsedge): 0 to 24%

COC(=O)c1c(O)nc(C(F)(F)F)c(C(=O)OC)c1CC(C)C [Compound 1, 3,5-pyridinedicarboxylic acid, 2-hydroxy-4-(2-methylpropyl)-6-(trifluoromethyl)-, dimethyl ester]
plant injury rating, Dobr (Dobr; 0.0701 kg/ha): 0
plant injury rating, Dobr (Dobr; 0.2803 kg/ha): 0
plant injury rating, Dobr (Dobr; 1.1210 kg/ha): 0
plant injury rating, Dobr (Dobr; 5.3808 kg/ha): 0
plant injury rating, Prmi (Prmi; 0.0701 kg/ha): 0
plant injury rating, Prmi (Prmi; 0.2803 kg/ha): 0
plant injury rating, Prmi (Prmi; 1.1210 kg/ha): 2
plant injury rating, Prmi (Prmi; 5.3808 kg/ha): 3
plant injury rating, Whez (Whez; 0.0701 kg/ha): 0
plant injury rating, Whez (Whez; 0.2803 kg/ha): 0
plant injury rating, Whez (Whez; 1.1210 kg/ha): 0
plant injury rating, Whez (Whez; 5.3808 kg/ha): 0
plant injury rating, Corn (Corn; 0.0701 kg/ha): 0
plant injury rating, Corn (Corn; 0.2803 kg/ha): 0
plant injury rating, Corn (Corn; 1.1210 kg/ha): 2
plant injury rating, Corn (Corn; 5.3808 kg/ha): 2
plant injury rating, Cobu (Cobu; 0.0701 kg/ha): 0
plant injury rating, Cobu (Cobu; 0.2803 kg/ha): 0
plant injury rating, Cobu (Cobu; 1.1210 kg/ha): 0
plant injury rating, Cobu (Cobu; 5.3808 kg/ha): 4
plant injury rating, Sobe (Sobe; 0.2803 kg/ha): 2
plant injury rating, Sobe (Sobe; 1.1210 kg/ha): 1
plant injury rating, Sobe (Sobe; 5.3808 kg/ha): 3
plant injury rating, Rice (Rice; 0.0701 kg/ha): 0
plant injury rating, Rice (Rice; 0.2803 kg/ha): 0
plant injury rating, Rice (Rice; 1.1210 kg/ha): 0
plant injury rating, Bygr (Bygr; 0.0701 kg/ha): 0
plant injury rating, Bygr (Bygr; 1.1210 kg/ha): 1
plant injury rating, Lacg (Lacg; 0.0701 kg/ha): 3
plant injury rating, Lacg (Lacg; 1.1210 kg/ha): 3
plant injury rating, Lacg (Lacg; 5.3808 kg/ha): 3
plant injury rating, Mogl (Mogl; 1.1210 kg/ha): 1
plant injury rating, Grso (Grso; 0.0701 kg/ha): 0
plant injury rating, Grso (Grso; 0.2803 kg/ha): 0
plant injury rating, Grso (Grso; 1.1210 kg/ha): 0
plant injury rating, Grft (Grft; 0.0701 kg/ha): 0
plant injury rating, Grft (Grft; 0.2803 kg/ha): 0
inhibition at 11200 g/ha (Morningglory): 0 to 24%
inhibition at 11200 g/ha (Downy Brome): 0 to 24%
inhibition at 11200 g/ha (Cocklebur): 0 to 24%
inhibition at 11200 g/ha (Yellow Nutsedge): 0 to 24%
